Assay results reported in US6525001B1, “Substituted pyrimidine and pyridine herbicides” (Mid-American Commercialization Corporation, priority 1997, dated 2003).

Columns and labels:
Format in all cases: in vivo
[1] = system: large crabgrass (Digitaria sanguinalis); assay: Test C; set-up: key: 0 was no effect; 100 was complete control; conditions: PREEMERGENCE
[2] = system: johnson grass (Sorghum halepense); assay: Test E pre-/postemergence/post directed
How it was run: (§1)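 Greenhouse pots; compound in non-phytotoxic solvent with surfactant, sprayed preemergence within one day of planting, postemergence at two to four leaf stage (three to twenty cm), or post directed to plant base and soil. Visual injury rated 13 to 21 days after application, 0 (none) to 100 (complete control).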

[3] = system: itchgrass (Rottboellia exaltata); assay: Test E pre-/postemergence/post directed
How it was run: as §1

[4] = system: Spanishneedles (Bidens bipinnata); assay: Test E pre-/postemergence/post directed
How it was run: as §1

[5] = system: bermudagrass (Cynodon dactylon); assay: Test E pre-/postemergence/post directed
How it was run: as §1

[6] = system: alexandergrass (Brachiaria plantaginea); assay: Test E pre-/postemergence/post directed
How it was run: as §1

[7] = system: common ragweed (Ambrosia elatior); assay: Test E pre-/postemergence/post directed
How it was run: as §1

[8] = system: sandbur (Cenchrus echinatus); assay: Test E pre-/postemergence/post directed; conditions: PREEMERGENCE
How it was run: as §1

[9] = system: surinam grass (Brachiaria decumbens); assay: Test E pre-/postemergence/post directed
How it was run: as §1

[10] = system: large crabgrass (Digitaria sanguinalis); assay: Test E pre-/postemergence/post directed
How it was run: as §1

[11] = system: barnyardgrass (Echinochloa crus-galli); assay: Test C; conditions: PREEMERGENCE
[12] = system: giant foxtail (Setaria faberii); assay: Test C; set-up: key: 0 was no effect; 100 was complete control; conditions: PREEMERGENCE
[13] = system: arrowleaf sida (Sida rhombifolia); assay: Test C; conditions: PREEMERGENCE
[14] = system: cotton (Gossypium hirsutum); assay: Test C; conditions: PREEMERGENCE
[15] = system: ivyleaf morningglory (Ipomoea hederacea); assay: Test C; conditions: PREEMERGENCE
[16] = system: velvetleaf (Abutilon theophrasti); assay: Test C; conditions: PREEMERGENCE
[17] = system: wild poinsettia (Euphorbia heterophylla); assay: Test C; set-up: key: 0 was no effect; 100 was complete control; conditions: PREEMERGENCE
[18] = system: eastern black nightshade (Solanum ptycanthum); assay: Test C; conditions: PREEMERGENCE
[19] = system: redroot pigweed (Amaranthus retroflexus); assay: Test C; set-up: key: 0 was no effect; 100 was complete control; conditions: PREEMERGENCE
[20] = system: cocklebur (Xanthium strumarium); assay: Test C; set-up: key: 0 was no effect; 100 was complete control; conditions: PREEMERGENCE

Cc1cnc(-c2ccc(C(F)(F)F)cc2)nc1Cc1cccc(OC(F)(F)F)c1 [Compound 15]
90: Plant response rating, Johnsongrass ([2]; PREEMERGENCE, Rate 64 g/ha) | Plant response rating, Johnsongrass ([2]; PREEMERGENCE, Rate 125 g/ha)
0: Plant response rating, Wild poinsettia ([17]; Rate 35 g/ha) | Plant response rating, Wild poinsettia ([17]; Rate 70 g/ha) | Plant response rating, Cocklebur ([20]; Rate 35 g/ha) | Plant response rating, Cocklebur ([20]; Rate 70 g/ha)
35: Plant response rating, Surinam grass ([9]; POSTEMERGENCE, Rate 125 g/ha) | Plant response rating, Barnyardgrass ([11]; Rate 70 g/ha)
75: Plant response rating, Alexandergrass ([6]; PREEMERGENCE, Rate 32 g/ha)
65: Plant response rating, I. morningglory ([15]; Rate 140 g/ha)
70: Plant response rating, Giant foxtail ([12]; Rate 35 g/ha) | Plant response rating, Velvetleaf ([16]; Rate 140 g/ha) | Plant response rating, E. blacknightsh ([18]; Rate 35 g/ha)
80: Plant response rating, Itchgrass ([3]; POSTEMERGENCE, Rate 125 g/ha) | Plant response rating, Itchgrass ([3]; PREEMERGENCE, Rate 250 g/ha) | Plant response rating, Alexandergrass ([6]; PREEMERGENCE, Rate 64 g/ha) | Plant response rating, Arrowleaf sida ([13]; Rate 35 g/ha)
10: Plant response rating, Itchgrass ([3]; PREEMERGENCE, Rate 32 g/ha) | Plant response rating, Spanishneedles ([4]; POSTEMERGENCE, Rate 250 g/ha) | Plant response rating, Alexandergrass ([6]; POSTEMERGENCE, Rate 125 g/ha) | Plant response rating, Com. ragweed ([7]; POSTEMERGENCE, Rate 250 g/ha) | Plant response rating, Sandbur ([8]; Rate 32 g/ha) | Plant response rating, Large crabgrass ([10]; POSTEMERGENCE, Rate 125 g/ha) | Plant response rating, Barnyardgrass ([11]; Rate 35 g/ha) | Plant response rating, Cotton ([14]; Rate 70 g/ha) | Plant response rating, Cotton ([14]; Rate 140 g/ha)
20: Plant response rating, Bermudagrass ([5]; POSTEMERGENCE, Rate 125 g/ha) | Plant response rating, Bermudagrass ([5]; POSTEMERGENCE, Rate 250 g/ha) | Plant response rating, Alexandergrass ([6]; POSTEMERGENCE, Rate 250 g/ha) | Plant response rating, Sandbur ([8]; Rate 64 g/ha) | Plant response rating, Surinam grass ([9]; PREEMERGENCE, Rate 32 g/ha) | Plant response rating, Surinam grass ([9]; PREEMERGENCE, Rate 64 g/ha) | Plant response rating, I. morningglory ([15]; Rate 70 g/ha) | Plant response rating, Velvetleaf ([16]; Rate 70 g/ha) | Plant response rating, Wild poinsettia ([17]; Rate 140 g/ha)
98: Plant response rating, Johnsongrass ([2]; POSTEMERGENCE, Rate 125 g/ha) | Plant response rating, Spanishneedles ([4]; PREEMERGENCE, Rate 125 g/ha) | Plant response rating, Bermudagrass ([5]; PREEMERGENCE, Rate 32 g/ha) | Plant response rating, Bermudagrass ([5]; PREEMERGENCE, Rate 64 g/ha) | Plant response rating, Bermudagrass ([5]; PREEMERGENCE, Rate 125 g/ha) | Plant response rating, Bermudagrass ([5]; PREEMERGENCE, Rate 250 g/ha) | Plant response rating, Com. ragweed ([7]; PREEMERGENCE, Rate 125 g/ha) | Plant response rating, Large crabgrass ([10]; PREEMERGENCE, Rate 32 g/ha)
100: Plant response rating, Large crabgrass ([1]; Rate 35 g/ha) | Plant response rating, Large crabgrass ([1]; Rate 70 g/ha) | Plant response rating, Large crabgrass ([1]; Rate 140 g/ha) | Plant response rating, Giant foxtail ([12]; Rate 70 g/ha) | Plant response rating, Giant foxtail ([12]; Rate 140 g/ha) | Plant response rating, Redroot pigweed ([19]; Rate 140 g/ha)
50: Plant response rating, Spanishneedles ([4]; PREEMERGENCE, Rate 32 g/ha) | Plant response rating, Sandbur ([8]; Rate 125 g/ha)
60: Plant response rating, Johnsongrass ([2]; PREEMERGENCE, Rate 32 g/ha) | Plant response rating, Itchgrass ([3]; PREEMERGENCE, Rate 125 g/ha) | Plant response rating, Redroot pigweed ([19]; Rate 35 g/ha)
95: Plant response rating, E. blacknightsh ([18]; Rate 70 g/ha) | Plant response rating, E. blacknightsh ([18]; Rate 140 g/ha)
15: Plant response rating, I. morningglory ([15]; Rate 35 g/ha)
30: Plant response rating, Itchgrass ([3]; PREEMERGENCE, Rate 64 g/ha) | Plant response rating, Spanishneedles ([4]; PREEMERGENCE, Rate 64 g/ha)
40: Plant response rating, Surinam grass ([9]; POSTEMERGENCE, Rate 250 g/ha) | Plant response rating, Large crabgrass ([10]; POSTEMERGENCE, Rate 250 g/ha)
85: Plant response rating, Itchgrass ([3]; POSTEMERGENCE, Rate 250 g/ha) | Plant response rating, Barnyardgrass ([11]; Rate 140 g/ha) | Plant response rating, Arrowleaf sida ([13]; Rate 70 g/ha) | Plant response rating, Arrowleaf sida ([13]; Rate 140 g/ha) | Plant response rating, Redroot pigweed ([19]; Rate 70 g/ha)
5: Plant response rating, Spanishneedles ([4]; POSTEMERGENCE, Rate 125 g/ha) | Plant response rating, Com. ragweed ([7]; POSTEMERGENCE, Rate 125 g/ha) | Plant response rating, Cotton ([14]; Rate 35 g/ha) | Plant response rating, Velvetleaf ([16]; Rate 35 g/ha) | Plant response rating, Cocklebur ([20]; Rate 140 g/ha)
